# Data published in patent US11975041B2, “Composition comprising CHP (cyclo-his pro) for preventing, improving or treating of bone loss related disease” (NovMetaPharma Co., Ltd., priority 2017, dated 2024).
# Entries after “also recorded” stand apart in the source; their conditions may differ.
# Assays:
# [1] = tested on: ovariectomized animal model; test: Osteoporosis alleviation in ovariectomized animal model, Micro CT of femur; assay type: in vivo, SD female mice
# Experimental: To determine the effect of alleviating osteoporosis in an ovariectomized animal model according to administration of CHP, a zinc salt, or a mixture thereof, 20-week-old SD female mice (SLC/Central Experimental Animal Co. Ltd., Seoul, Korea) were purchased and raised under certain conditions (temperature: 22±2° C., relative humidity: 55±10%, light/dark cycle: 12 hours). 7 mice/group were allowed to freely drink water and eat food in a cage, subjected to an adaptation period of 1 week before the experiment, and used in the experiment.
# After 6 weeks of the administration of CHP, a zinc salt, or a mixture thereof, the effect of alleviating osteoporosis in an ovariectomized animal model was analyzed using Micro CT. The bone mineral density of ovariectomized animals was measured by bone CT scanning of the 3 mm range at the front side of a 2 mm femoral growth plate using micro-CT (QuantumFX, Perkin Elmer, Massachusetts, USA). In addition, a bone volume fraction (BV/TV, %) was measured. The measurement results of the bone mineral density of the femur are illustrated in FIG. 1, and the bone volume fraction is illustrated in FIG. 2.
# MC3T3-E1 cells = test: Alkaline phosphatase (ALP) activity / osteogenic differentiation of MC3T3-E1 osteoblasts; assay type: cell-based
# Experimental: MC3T3-E1 cells were incubated in MEMα, an ascorbic acid-free medium containing 10% FBS and 1% penicillin/streptomycin, in a 5% CO2 incubator at 37° C. To induce osteogenic differentiation, 10 mM β-glycerophosphate and […] of ascorbic acid was further added to the basal medium composition.
# 500 μl of 1×10^5 MC3T3-E1 cells were seeded into a 24-well plate and cultured for 24 hours until they reached 100% confluency. […] At this time, in the undifferentiated group, which is a negative control for differentiation, a basal medium was used instead of the differentiation medium. In the positive control treated with hPTH1-34, the medium was replaced with a differentiation medium 6 hours after the treatment. While the medium was replaced every 48 hours, each concentration of CHP and hPTH1-34 was treated for a total of 14 days.
# On day 14 of differentiation, the medium was removed, followed by washing once with PBS and fixing in 4% paraformaldehyde (PFA) at room temperature for 5 minutes. 500 μl of a 1-STEP™ NBCT/BCIP solution was added to allow a reaction to occur at room temperature for 1 hour. The reaction product was washed with distilled water, and then dried at room temperature, and the degree of coloring of the cells was observed using a microscope. Subsequently, DMSO was added to each well, followed by shaking, and then absorbance at 525 nm was measured.
structure (smiles),measurement,setting,value
"O=C1N[C@@H](Cc2cnc[nH]2)C(=O)N2CCC[C@@H]12 [CHP, cyclo-hispro]",bone mineral density of the femur,"[1]; 1 mg/L of CHP in drinking water, 6 weeks, micro-CT, compared to the ovariectomized group (FIG. 1)",significant increase
same,bone volume fraction (BV/TV),"[1]; 1 mg/L of CHP in drinking water, 6 weeks, micro-CT, compared with positive control risedronate (FIG. 2)",restored to a level similar to that of the positive control
same,effect on bone mineral density and bone volume fraction relative to zinc salt and zinc salt + CHP mixture groups,[1]; CHP alone vs zinc salt-administered group and combined administration group,significantly stronger
same,bone mineral density of a femur,"[1]; CHP alone, ovariectomized animal model, dose not stated (FIG. 1)",significantly increased
same,bone volume fraction of a femur,"[1]; CHP alone, ovariectomized animal model, dose not stated (FIG. 2)",significantly increased
same,ALP activity (absorbance at 525 nm),"MC3T3-E1 cells; 2 mM CHP, day 14, compared with positive control hPTH1-34 10 nM (FIG. 4)",level similar to that of the positive control; also recorded: same or similar to that of a positive control
same,"osteogenic differentiation (degree of coloring, ALP staining)","MC3T3-E1 cells; 0.5, 1, 2 mM CHP, day 14 of differentiation, compared to negative control (FIG. 3)",remarkably increased degree of coloring; also recorded: osteogenic differentiation and bone modeling were promoted
